Laboratory results as given in the NIST ThermoML archive (doi:10.1021/je400055v).
Numbers after ± are expanded uncertainties.

Test: xn = mol fraction of the nth substance listed
Settings: Liquid, Vibrating tube method

CCCCCCCCCCC [undecane] + CCCCCCC
Settings | mass density [kg/m3]
323.12 K, 7000 kPa, x2 = 0.7482 | 685.4 ± 0.3
323.12 K, 8000 kPa, x2 = 0.7482 | 686.4 ± 0.3
323.12 K, 8001 kPa, x2 = 0.05 | 722.8 ± 0.3
323.12 K, 9000 kPa, x2 = 0.05 | 723.6 ± 0.3
323.12 K, 9000 kPa, x2 = 0.7482 | 687.3 ± 0.3
323.12 K, 10000 kPa, x2 = 0.05 | 724.5 ± 0.3
323.12 K, 10000 kPa, x2 = 0.7482 | 688.3 ± 0.3
323.12 K, 11000 kPa, x2 = 0.05 | 725.3 ± 0.3
323.12 K, 11000 kPa, x2 = 0.7482 | 689.2 ± 0.3
323.12 K, 12000 kPa, x2 = 0.05 | 726.1 ± 0.3
323.12 K, 12000 kPa, x2 = 0.7482 | 690.1 ± 0.3
323.12 K, 13000 kPa, x2 = 0.05 | 726.8 ± 0.3
323.12 K, 13000 kPa, x2 = 0.7482 | 691.1 ± 0.4
323.12 K, 14000 kPa, x2 = 0.05 | 727.6 ± 0.3
323.12 K, 14000 kPa, x2 = 0.7482 | 691.9 ± 0.4
323.12 K, 15000 kPa, x2 = 0.05 | 728.4 ± 0.3
323.12 K, 15000 kPa, x2 = 0.7482 | 692.8 ± 0.4
323.12 K, 16000 kPa, x2 = 0.05 | 729.1 ± 0.4
323.12 K, 16000 kPa, x2 = 0.7482 | 693.7 ± 0.4
323.12 K, 17000 kPa, x2 = 0.05 | 729.9 ± 0.4
323.12 K, 17000 kPa, x2 = 0.7482 | 694.5 ± 0.4
323.12 K, 18000 kPa, x2 = 0.05 | 730.6 ± 0.4
323.12 K, 18000 kPa, x2 = 0.7482 | 695.4 ± 0.4
323.12 K, 19000 kPa, x2 = 0.05 | 731.3 ± 0.4
323.12 K, 19000 kPa, x2 = 0.7482 | 696.2 ± 0.4
323.12 K, 20000 kPa, x2 = 0.05 | 732 ± 0.4
323.12 K, 20000 kPa, x2 = 0.7482 | 697 ± 0.4
323.12 K, 21000 kPa, x2 = 0.05 | 732.7 ± 0.4
323.12 K, 21000 kPa, x2 = 0.7482 | 697.8 ± 0.4
323.12 K, 22000 kPa, x2 = 0.7482 | 698.6 ± 0.4
323.12 K, 22001 kPa, x2 = 0.05 | 733.4 ± 0.4
323.12 K, 23000 kPa, x2 = 0.05 | 734.1 ± 0.4
323.12 K, 23000 kPa, x2 = 0.7482 | 699.4 ± 0.4
323.12 K, 24000 kPa, x2 = 0.05 | 734.8 ± 0.4
323.12 K, 24000 kPa, x2 = 0.7482 | 700.1 ± 0.4
323.12 K, 25000 kPa, x2 = 0.05 | 735.4 ± 0.4
323.12 K, 25000 kPa, x2 = 0.7482 | 700.9 ± 0.5
323.15 K, 1000 kPa, x2 = 0.2346 | 708.9 ± 0.3
323.15 K, 2000 kPa, x2 = 0.2346 | 709.9 ± 0.3
323.15 K, 3000 kPa, x2 = 0.2346 | 710.8 ± 0.3
323.15 K, 4001 kPa, x2 = 0.2346 | 711.7 ± 0.3
323.15 K, 5001 kPa, x2 = 0.2346 | 712.6 ± 0.3
323.15 K, 6001 kPa, x2 = 0.2346 | 713.5 ± 0.3
323.15 K, 7001 kPa, x2 = 0.2346 | 714.4 ± 0.3
323.15 K, 8000 kPa, x2 = 0.2346 | 715.2 ± 0.3
323.15 K, 9000 kPa, x2 = 0.2346 | 716.1 ± 0.3
323.15 K, 10000 kPa, x2 = 0.2346 | 716.9 ± 0.3
323.15 K, 11000 kPa, x2 = 0.2346 | 717.7 ± 0.3
323.15 K, 12000 kPa, x2 = 0.2346 | 718.5 ± 0.3
323.15 K, 13000 kPa, x2 = 0.2346 | 719.4 ± 0.3
323.15 K, 14000 kPa, x2 = 0.2346 | 720.1 ± 0.3
323.15 K, 15000 kPa, x2 = 0.2346 | 720.9 ± 0.4
323.15 K, 16001 kPa, x2 = 0.2346 | 721.7 ± 0.4
323.15 K, 17000 kPa, x2 = 0.2346 | 722.5 ± 0.4
323.15 K, 18000 kPa, x2 = 0.2346 | 723.2 ± 0.4
323.15 K, 19000 kPa, x2 = 0.2346 | 724 ± 0.4
323.15 K, 20000 kPa, x2 = 0.2346 | 724.7 ± 0.4
323.15 K, 21033 kPa, x2 = 0.2346 | 725.4 ± 0.4
323.15 K, 22034 kPa, x2 = 0.2346 | 726.1 ± 0.4
323.15 K, 23036 kPa, x2 = 0.2346 | 726.9 ± 0.4
323.15 K, 24037 kPa, x2 = 0.2346 | 727.5 ± 0.4
323.15 K, 25039 kPa, x2 = 0.2346 | 728.2 ± 0.4
333.01 K, 1001 kPa, x2 = 0.9511 | 654.4 ± 0.3
333.01 K, 2000 kPa, x2 = 0.9511 | 655.7 ± 0.3
333.01 K, 3000 kPa, x2 = 0.9511 | 656.9 ± 0.3
333.01 K, 4000 kPa, x2 = 0.9511 | 658.2 ± 0.3
333.01 K, 5000 kPa, x2 = 0.9511 | 659.4 ± 0.3
333.01 K, 6000 kPa, x2 = 0.9511 | 660.5 ± 0.3
333.01 K, 7000 kPa, x2 = 0.9511 | 661.7 ± 0.3
333.01 K, 8000 kPa, x2 = 0.9511 | 662.8 ± 0.3
333.01 K, 9000 kPa, x2 = 0.9511 | 663.9 ± 0.3
333.01 K, 10000 kPa, x2 = 0.9511 | 665 ± 0.3
333.01 K, 11000 kPa, x2 = 0.9511 | 666.1 ± 0.4
333.01 K, 12000 kPa, x2 = 0.9511 | 667.1 ± 0.4
333.01 K, 13000 kPa, x2 = 0.9511 | 668.2 ± 0.4
333.01 K, 14001 kPa, x2 = 0.9511 | 669.2 ± 0.4
333.01 K, 15001 kPa, x2 = 0.9511 | 670.2 ± 0.4
333.01 K, 16000 kPa, x2 = 0.9511 | 671.2 ± 0.4
333.01 K, 17001 kPa, x2 = 0.9511 | 672.1 ± 0.4
333.01 K, 18001 kPa, x2 = 0.9511 | 673.1 ± 0.4
333.01 K, 19000 kPa, x2 = 0.9511 | 674 ± 0.4
333.01 K, 20000 kPa, x2 = 0.9511 | 674.9 ± 0.4
333.01 K, 21001 kPa, x2 = 0.9511 | 675.8 ± 0.4
333.01 K, 22000 kPa, x2 = 0.9511 | 676.7 ± 0.5
333.01 K, 23001 kPa, x2 = 0.9511 | 677.6 ± 0.5
333.01 K, 24000 kPa, x2 = 0.9511 | 678.5 ± 0.5
333.01 K, 25000 kPa, x2 = 0.9511 | 679.3 ± 0.5
333.04 K, 2001 kPa, x2 = 0.5063 | 688 ± 0.3
333.04 K, 3000 kPa, x2 = 0.5063 | 689 ± 0.3
333.04 K, 4000 kPa, x2 = 0.5063 | 690.1 ± 0.3
333.04 K, 5000 kPa, x2 = 0.5063 | 691.1 ± 0.3
333.04 K, 6000 kPa, x2 = 0.5063 | 692.1 ± 0.3
333.04 K, 7000 kPa, x2 = 0.5063 | 693.1 ± 0.3
